From ChEMBL document CHEMBL1201862, “PubChem BioAssay data set” (2004)
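48-hour exposure; five concentrations; linearly interpolated endpoints. At the GI50, growth is halved.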 Active and inactive are the calls of the source. Cut-off read from the data, not from the text of the source: active = GI50 up to about 1.1 µM and inactive = higher.

Tests used:
Test in all cases: growth of human tumour cells (NCI), 48 h
LXFL 529 = tested on: LXFL 529
NCI-H522 = tested on: NCI-H522
COLO 205 = tested on: COLO 205
XF498 = tested on: XF498
SNB-75 = tested on: SNB-75
Malme-3M = tested on: Malme-3M
TK-10 = tested on: TK-10
SF-268 = tested on: SF-268
SR = tested on: SR
ACHN = tested on: ACHN
RXF 393 = tested on: RXF 393
CAKI-1 = tested on: CAKI-1
EKVX = tested on: EKVX
LOX IMVI = tested on: LOX IMVI
HCC 2998 = tested on: HCC 2998
786-0 = tested on: 786-0
SK-OV-3 = tested on: SK-OV-3
HT-29 = tested on: HT-29
M14 = tested on: M14
UACC-257 = tested on: UACC-257
NCI-H226 = tested on: NCI-H226
SNB-19 = tested on: SNB-19
RXF 631 = tested on: RXF 631
NCI-H23 = tested on: NCI-H23
HL-60 = tested on: HL-60
SF-295 = tested on: SF-295
DMS-273 = tested on: DMS-273
UACC-62 = tested on: UACC-62
SN12C = tested on: SN12C
UO-31 = tested on: UO-31
SK-MEL-2 = tested on: SK-MEL-2
KM12 = tested on: KM12
HOP-18 = tested on: HOP-18
M19-MEL = tested on: M19-MEL
OVCAR-5 = tested on: OVCAR-5
SW-620 = tested on: SW-620
NCI-H460 = tested on: NCI-H460
OVCAR-4 = tested on: OVCAR-4
SF-539 = tested on: SF-539
KM-20L2 = tested on: KM-20L2
OVCAR-8 = tested on: OVCAR-8
HOP-62 = tested on: HOP-62
DMS-114 = tested on: DMS-114
IGROV-1 = tested on: IGROV-1
OVCAR-3 = tested on: OVCAR-3
U-251 = tested on: U-251
SK-MEL-28 = tested on: SK-MEL-28
SK-MEL-5 = tested on: SK-MEL-5
DLD-1 = tested on: DLD-1
SNB-78 = tested on: SNB-78
HCT-15 = tested on: HCT-15
RPMI-8226 = tested on: RPMI-8226
A549 = tested on: A549
HOP-92 = tested on: HOP-92
HCT-116 = tested on: HCT-116
K562 = tested on: K562
MOLT-4 = tested on: MOLT-4
CCRF-CEM = tested on: CCRF-CEM
A498 = tested on: A498

## COc1ccc(/C(Cl)=C(/c2ccc(O)cc2)c2ccc(OCCN(C)C)cc2)cc1
LXFL 529
  GI50: 10.8 µM (inactive)
NCI-H522
  GI50: 12.1 µM (inactive)
COLO 205
  GI50: 9.86 µM (inactive)
XF498
  GI50: 3.65 µM (inactive)
SNB-75
  GI50: 11 µM (inactive)
Malme-3M
  GI50: 4.62 µM (inactive)
TK-10
  GI50: 19.7 µM (inactive)
SF-268
  GI50: 11.8 µM (inactive)
SR
  GI50: 2.9 µM (inactive)
ACHN
  GI50: 14.6 µM (inactive)
RXF 393
  GI50: 5.12 µM (inactive)
CAKI-1
  GI50: 14.3 µM (inactive)
EKVX
  GI50: 16.6 µM (inactive)
LOX IMVI
  GI50: 2.96 µM (inactive)
HCC 2998
  GI50: 16.7 µM (inactive)
786-0
  GI50: 6.03 µM (inactive)
SK-OV-3
  GI50: 13.1 µM (inactive)
HT-29
  GI50: 2.13 µM (inactive)
M14
  GI50: 2.1 µM (inactive)
UACC-257
  GI50: 2.9 µM (inactive)
NCI-H226
  GI50: 16.1 µM (inactive)
SNB-19
  GI50: 14.1 µM (inactive)
RXF 631
  GI50: 12.4 µM (inactive)
NCI-H23
  GI50: 15.6 µM (inactive)
HL-60
  GI50: 10.2 µM (inactive)
SF-295
  GI50: 4.78 µM (inactive)
DMS-273
  GI50: 11.1 µM (inactive)
UACC-62
  GI50: 16.6 µM (inactive)
SN12C
  GI50: 12.9 µM (inactive)
UO-31
  GI50: 7.03 µM (inactive)
SK-MEL-2
  GI50: 10.4 µM (inactive)
KM12
  GI50: 9.14 µM (inactive)
HOP-18
  GI50: 12.5 µM (inactive)
M19-MEL
  GI50: 3.72 µM (inactive)
OVCAR-5
  GI50: 13.3 µM (inactive)
SW-620
  GI50: 11.9 µM (inactive)
NCI-H460
  GI50: 12.7 µM (inactive)
OVCAR-4
  GI50: 13.9 µM (inactive)
SF-539
  GI50: 11.5 µM (inactive)
KM-20L2
  GI50: 3.1 µM (inactive)
OVCAR-8
  GI50: 15.5 µM (inactive)
HOP-62
  GI50: 13.6 µM (inactive)
DMS-114
  GI50: 7.18 µM (inactive)
IGROV-1
  GI50: 16.4 µM (inactive)
OVCAR-3
  GI50: 15.3 µM (inactive)
U-251
  GI50: 11.2 µM (inactive)
SK-MEL-28
  GI50: 4.38 µM (inactive)
SK-MEL-5
  GI50: 4.28 µM (inactive)
DLD-1
  GI50: 15.7 µM (inactive)
SNB-78
  GI50: 14.5 µM (inactive)
HCT-15
  GI50: 11.3 µM
RPMI-8226
  GI50: 5.96 µM (inactive)
A549
  GI50: 13.8 µM (inactive)

## CC1=NC(C(C)C)C(=O)O1 (stereo not drawn)
LXFL 529
  GI50: > 100 µM (inactive)
NCI-H522
  GI50: > 100 µM (inactive)
COLO 205
  GI50: 72.3 µM (inactive)
XF498
  GI50: > 100 µM (inactive)
SNB-75
  GI50: > 100 µM (inactive)
Malme-3M
  GI50: > 100 µM (inactive)
TK-10
  GI50: > 100 µM (inactive)
HOP-92
  GI50: > 100 µM (inactive)
SF-268
  GI50: 45.1 µM (inactive)
ACHN
  GI50: > 100 µM (inactive)
CAKI-1
  GI50: > 100 µM (inactive)
EKVX
  GI50: > 100 µM (inactive)
HCC 2998
  GI50: > 100 µM (inactive)
HCT-116
  GI50: 18.5 µM (inactive)
786-0
  GI50: 58.1 µM (inactive)
SK-OV-3
  GI50: > 100 µM (inactive)
HT-29
  GI50: 61.1 µM (inactive)
M14
  GI50: > 100 µM (inactive)
UACC-257
  GI50: > 100 µM (inactive)
NCI-H226
  GI50: > 100 µM (inactive)
SNB-19
  GI50: > 100 µM (inactive)
RXF 631
  GI50: > 100 µM (inactive)
K562
  GI50: 61.1 µM (inactive)
NCI-H23
  GI50: > 100 µM (inactive)
HL-60
  GI50: > 100 µM (inactive)
SF-295
  GI50: > 100 µM (inactive)
MOLT-4
  GI50: > 100 µM (inactive)
DMS-273
  GI50: 56 µM (inactive)
UACC-62
  GI50: > 100 µM (inactive)
SN12C
  GI50: > 100 µM (inactive)
UO-31
  GI50: > 100 µM (inactive)
KM12
  GI50: > 100 µM (inactive)
HOP-18
  GI50: > 100 µM (inactive)
M19-MEL
  GI50: > 100 µM (inactive)
OVCAR-5
  GI50: > 100 µM (inactive)
SW-620
  GI50: 13.1 µM (inactive)
NCI-H460
  GI50: > 100 µM (inactive)
OVCAR-4
  GI50: > 100 µM (inactive)
SF-539
  GI50: > 100 µM (inactive)
KM-20L2
  GI50: > 100 µM (inactive)
CCRF-CEM
  GI50: > 100 µM (inactive)
OVCAR-8
  GI50: > 100 µM (inactive)
HOP-62
  GI50: > 100 µM (inactive)
DMS-114
  GI50: 24.6 µM (inactive)
IGROV-1
  GI50: > 100 µM (inactive)
OVCAR-3
  GI50: > 100 µM (inactive)
A498
  GI50: > 100 µM (inactive)
U-251
  GI50: > 100 µM (inactive)
SK-MEL-28
  GI50: > 100 µM (inactive)
SK-MEL-5
  GI50: > 100 µM (inactive)
DLD-1
  GI50: 56.2 µM (inactive)
SNB-78
  GI50: > 100 µM (inactive)
HCT-15
  GI50: 34.4 µM
RPMI-8226
  GI50: 22.1 µM (inactive)

## S=C1OC2CCCC[C@H]2O1 (stereo partly drawn)
LXFL 529
  GI50: > 100 µM (inactive)
NCI-H522
  GI50: > 100 µM (inactive)
COLO 205
  GI50: > 100 µM (inactive)
XF498
  GI50: > 100 µM (inactive)
SNB-75
  GI50: > 100 µM (inactive)
TK-10
  GI50: > 100 µM (inactive)
HOP-92
  GI50: > 100 µM (inactive)
SF-268
  GI50: > 100 µM (inactive)
SR
  GI50: > 100 µM (inactive)
ACHN
  GI50: > 100 µM (inactive)
RXF 393
  GI50: > 100 µM (inactive)
CAKI-1
  GI50: > 100 µM (inactive)
EKVX
  GI50: > 100 µM (inactive)
LOX IMVI
  GI50: > 100 µM (inactive)
HCC 2998
  GI50: > 100 µM (inactive)
HCT-116
  GI50: > 100 µM (inactive)
786-0
  GI50: > 100 µM (inactive)
SK-OV-3
  GI50: > 100 µM (inactive)
HT-29
  GI50: > 100 µM (inactive)
M14
  GI50: > 100 µM (inactive)
UACC-257
  GI50: > 100 µM (inactive)
NCI-H226
  GI50: > 100 µM (inactive)
SNB-19
  GI50: > 100 µM (inactive)
RXF 631
  GI50: > 100 µM (inactive)
K562
  GI50: > 100 µM (inactive)
NCI-H23
  GI50: > 100 µM (inactive)
HL-60
  GI50: > 100 µM (inactive)
SF-295
  GI50: > 100 µM (inactive)
MOLT-4
  GI50: > 100 µM (inactive)
DMS-273
  GI50: > 100 µM (inactive)
UACC-62
  GI50: > 100 µM (inactive)
SN12C
  GI50: > 100 µM (inactive)
UO-31
  GI50: > 100 µM (inactive)
SK-MEL-2
  GI50: > 100 µM (inactive)
KM12
  GI50: > 100 µM (inactive)
HOP-18
  GI50: > 100 µM (inactive)
M19-MEL
  GI50: > 100 µM (inactive)
OVCAR-5
  GI50: > 100 µM (inactive)
SW-620
  GI50: > 100 µM (inactive)
NCI-H460
  GI50: > 100 µM (inactive)
OVCAR-4
  GI50: > 100 µM (inactive)
SF-539
  GI50: > 100 µM (inactive)
KM-20L2
  GI50: > 100 µM (inactive)
CCRF-CEM
  GI50: > 100 µM (inactive)
OVCAR-8
  GI50: > 100 µM (inactive)
HOP-62
  GI50: > 100 µM (inactive)
DMS-114
  GI50: > 100 µM (inactive)
IGROV-1
  GI50: > 100 µM (inactive)
OVCAR-3
  GI50: > 100 µM (inactive)
U-251
  GI50: > 100 µM (inactive)
SK-MEL-28
  GI50: > 100 µM (inactive)
SK-MEL-5
  GI50: > 100 µM (inactive)
DLD-1
  GI50: > 100 µM (inactive)
SNB-78
  GI50: > 100 µM (inactive)
RPMI-8226
  GI50: > 100 µM (inactive)
A549
  GI50: > 100 µM (inactive)
